What was measured:
[1] = test system: Proteus Mirabilis (ATCC 29906); assay: Antibacterial Test 1: bacterial growth inhibition rate by absorbance at 600 nm; format: cell-based; conditions: 0.1 g sample in 25 ml nutrient broth, 3000 CFU/ml, 37° C., 16 hours
Method: Antibacterial tests were performed on the antibacterial polymers prepared in Examples and Comparative Examples. Specifically, in the antibacterial test, the bacterial growth inhibition rate (%) was measured by the following method. In addition, the bacterial growth inhibition rate (%) of Icaridin and Menthol acrylate as single molecules was also measured by the same method and shown as Comparative Examples 2 and 3.
0.1 g of the antibacterial polymer prepared above was added to 25 ml of nutrient broth culture medium inoculated with the test bacterium Proteus Mirabilis (ATCC 29906) at 3000 CFU/ml, and then incubated in a shaking incubator (VS-37SIF, produced by Visiontech) at 37° C. for 16 hours. The absorbance at 600 nm wavelength of the cultured solution was measured using a UV-Vis Spectrophotometer (Optizen POP, produced by K Lab). In addition, in a pure culture medium containing no antibacterial polymer, a solution prepared by culturing Proteus Mirabilis (ATCC 29906) at 37° C. for 16 hours was prepared as a control group, and the absorbance at a 600 nm wavelength was measured by the same manner as above. Using the measurement result, the bacterial growth inhibition rate (%) of Proteus Mirabilis (ATCC 29906) was calculated according to Equation 1 below, and the results are shown in Table 1 below. […]

E. Coli = assay: Antibacterial Test 2: bacterial reduction rate, ASTM E 2149 test method; format: cell-based, Escherichia coli; conditions: 0.2 g sample, 10 mL PBS with E. Coli, 37° C., colony count; for 1 hour-bacterial reduction rate: 1 hour-contact; for 24 hour-bacterial reduction rate: 24 hour-contact
Method: Antibacterial tests were performed on the antibacterial polymers prepared in Examples and Comparative Examples. Specifically, based on the ASTM E 2149 antibacterial test method, the bacterial reduction rate (%) was measured by the following method. In addition, the bacterial reduction rates (%) of Icaridin and Menthol acrylate as single molecules was also measured by the same method and shown as Comparative Examples 2 and 3.
The sample (0.2 g) was placed in a 50 mL conical tube, to which 1× PBS (10 mL) inoculated with E. Coli (1.5×10^5 CFU/mL) was added, and cultured for 1 hour and 24 hours in a shaking incubator at 37° C., so as to allow the bacteria and the material to come into sufficient contact with each other. In order to check the colony of E. coli in the cultured sample, the sequentially diluted solution was spread on a TSA Agar plate, and then cultured for 16 hours so as to form colonies in an incubator at 30° C. The degree of bacterial culture was grasped from the number of colonies formed, and the antibacterial performance was compared.
In the above equation, Cs is the number of microorganisms (CFU/ml) in the experimental group, which can be confirmed as the number of colonies formed on the TSA Agar plate, and C0 is the number of microorganisms in the control group, which means the number of E. Coli in PBS to which the sample was not added.

[2] = Comparison of thermal decomposition behavior by TGA of PMMA blends; format: physicochemical; conditions: TGA step 4, 50° C. to 600° C., 10° C./min, nitrogen; 40 parts by weight in 100 parts PMMA
Method: Poly(Methyl methacrylate) (TCI Chemical, CAS RN: 9011-14-7) was put into a Mixed Torque Rheometer (HAPRO), and then the temperature was raised to 160° C. and the mixture was mixed for 5 minutes. PIA-2 and icaridin were added in an amount of 40 parts by weight based on 100 parts by weight of poly(methyl methacrylate), respectively, mixed at a temperature of 160° C. for 30 minutes, and then cooled to room temperature to obtain a sample.
In order to confirm the thermal decomposition behavior of the prepared sample, experiments were performed as shown in Table 2 below using TGA (Thermogravimetric Analyzer, TA Instrument, DISCOVERY TGA 550 W/MFC & AUTO).

Structure (SMILES)	Bacterial growth inhibition rate [1] [%]	1 hour-bacterial reduction rate (E. Coli) [%]	24 hour-bacterial reduction rate (E. Coli) [%]	Thermal decomposition behavior / heat resistance [2]
CCC(C)OC(=O)N1CCCCC1CCO (stereo not shown) [compound 2, Icaridin]	11.24	3.17	13.89	proceeds decomposition from a lower temperature than that of PIA-2
C=CC(=O)OC1CC(C)CCC1C(C)C (stereo not shown) [compound 3, Menthol acrylate]	0.2	0	0	–
